Earlier results as cited in patent US20240316044A1, “GRANULATE COMPOSITION COMPRISING NILOTINIB” (HELM AG, priority 2021, published 2024).
Counter-ions that a name gives are not always drawn.

- BCS class (low/moderate aqueous solubility and low permeability): Class IV
SMILES: Cc1cn(-c2cc(NC(=O)c3ccc(C)c(Nc4nccc(-c5cccnc5)n4)c3)cc(C(F)(F)F)c2)cn1 [Anhydrous Nilotinib hydrochloride, 4-methyl-N-[3-(4-methyl-1H-imidazol-1-yl)-5-(trifluoromethyl)phenyl]-3-{[4-(pyridin-3-yl)pyrimidin-2-yl]amino} benzamide]
